In patent US12275737B2, “Polymorphs of a kinase inhibitor, pharmaceutical compositions containing such a compound, preparation methods, and applications” (Meryx, Inc., priority 2019, dated 2025):
Where a name gives a salt, the structure may show the parent alone. Read-outs that look alike come from different tables or passages of the source.

Columns and labels:
[1] = Determination of crystal form stability; format: physicochemical
[2] = Determination of saturated solubility; format: physicochemical; settings: shaken 4 hours; for saturated solubility: 37° C.
Experimental: An appropriate amount of a sample of the compound is supersaturated in water at a pH of 1-8 and shaken at 37° C. for 4 hours with a shaker. The compound is sampled, centrifuged, then the supernatant is diluted and tested by HPLC. Calculations are compared to an external standard.
The saturated solubility of the compound of Crystal Form 1 and Crystal Form 2 of the compound of Formula I and MRX-2843 free base at 37° C. in different pH values are shown in Table 3.

[3] = Pharmacokinetics after oral capsule in male beagle dogs; format: in vivo; settings: for absorption in the body compared with the free alkali of the compound of Formula I: conclusion from Table 6
Experimental: Nine male beagle dogs are divided into three groups, three in each group. They are each respectively administrated a 5 mg/kg oral capsule (PO) of Crystal Form 1, Crystal Form 2 and free base of the compound of Formula I (the dose is calculated according to the dose of the free base). Blood is collected from the jugular vein before administration and after administration for 15 minutes, 30 minutes, 1 hour, 2 hours, 4 hours, 6 hours, 8 hours, 10 hours, and 24 hours, and the plasma is separated and stored in a refrigerator at −80° C. LC-MS is subsequently used for analysis.

[4] = stored at 40° C./75% RH for 1, 3 and 6 months, trihydrochloride
[5] = pH 2.0, water, trihydrochloride
[6] = pH 3.0, water, trihydrochloride
[7] = pH 4.5, water, trihydrochloride
[8] = pH 6.0, water, trihydrochloride
[9] = pH 6.8, water, trihydrochloride
[10] = pH 7.4, water, trihydrochloride
[11] = pH 8.0, water, trihydrochloride
[12] = 5 mg/kg (as free base), plasma, trihydrochloride
[13] = male, beagle, dog, plasma, po, 5 mg/kg, 5 mg/kg (as free base)
[14] = 5 mg/kg (as free base), plasma, listed as Free base of the compound of Formula I

Structure (SMILES): CN1CCN(Cc2ccc(-c3cn([C@H]4CC[C@H](O)CC4)c4nc(NCCC5CC5)ncc34)cc2)CC1 [Crystal Form 1, trihydrochloride]
- crystal form after storage ([1]; stored at 25° C./60% RH for 1, 3 and 6 months): remains unchanged
- crystal form after storage [1, 4]: remains unchanged
- saturated solubility [2, 5]: 489.60 mg/mL
- saturated solubility [2, 6]: 522.25 mg/mL
- saturated solubility [2, 7]: 513.40 mg/mL
- saturated solubility [2, 8]: 460.64 mg/mL
- saturated solubility [2, 9]: 554.17 mg/mL
- saturated solubility [2, 10]: 494.83 mg/mL
- saturated solubility [2, 11]: 562.59 mg/mL
- solubility at 4 h ([2]; water, 37 °C, pH 1, simulated gastric fluid, thermodynamic from solid, pH 1.0, water): 587 mg/mL
- Cmax [3, 12]: 133 ng/mL
- absorption in the body compared with the free alkali of the compound of Formula I ([3]; 5 mg/kg): better absorbed
- AUC(0-inf) [3, 13]: 1620 ng·h/mL
- AUC(0-t) [3, 13]: 1400 ng·h/mL
- Tmax ([3]; male, beagle, dog, plasma, po, 5 mg/kg, 5 mg/kg (as free base), plasma, read-out: Tmax): 2.67 h

Structure (SMILES): CN1CCN(Cc2ccc(-c3cn([C@H]4CC[C@H](O)CC4)c4nc(NCCC5CC5)ncc34)cc2)CC1 [Crystal Form 2, trihydrochloride]
- crystal form after storage ([1]; stored at 5° C. for 18 and 24 months): remains unchanged
- crystal form after storage ([1]; stored at 25° C./60% RH for 1, 3, 6, 9, 12, 18 and 24 months): remained unchanged
- crystal form after storage [1, 4]: unchanged
- saturated solubility ([2]; pH 1.0, water, trihydrochloride): 535.05 mg/mL
- saturated solubility [2, 5]: 531.72 mg/mL
- saturated solubility [2, 6]: 512.80 mg/mL
- saturated solubility [2, 7]: 527.84 mg/mL
- saturated solubility [2, 8]: 546.95 mg/mL
- saturated solubility [2, 9]: 557.34 mg/mL
- saturated solubility [2, 10]: 516.01 mg/mL
- saturated solubility [2, 11]: 479.26 mg/mL
- AUCInf [3, 12]: 1,530 h * ng/mL
- AUClast [3, 12]: 1,323 h * ng/mL
- Cmax [3, 12]: 125 ng/mL
- Tmax [3, 12]: 2.00 h
- absorption in the body compared with the free alkali of the compound of Formula I ([3]; 5 mg/kg): better absorbed

Structure (SMILES): CN1CCN(Cc2ccc(-c3cn([C@H]4CC[C@H](O)CC4)c4nc(NCCC5CC5)ncc34)cc2)CC1 [MRX-2843 free base, reference compound]
- saturated solubility ([2]; pH 1.0, water): 301.086 mg/mL
- saturated solubility ([2]; pH 2.0, water): 3.110 mg/mL
- saturated solubility ([2]; pH 3.0, water): 1.516 mg/mL
- saturated solubility ([2]; pH 4.5, water): 2.034 mg/mL
- saturated solubility ([2]; pH 6.0, water): 0.018 mg/mL
- saturated solubility ([2]; pH 6.8, water): 0.008 mg/mL
- saturated solubility ([2]; pH 7.4, water): 0.007 mg/mL
- saturated solubility ([2]; pH 8.0, water): 0.008 mg/mL
- AUCInf [3, 14]: 1,318 h * ng/mL
- AUClast [3, 14]: 1,169 h * ng/mL
- Cmax [3, 14]: 285 ng/mL
- Tmax [3, 14]: 3.33 h
